From patent US6699969B1, “Assays for the detection of microtubule depolymerization inhibitors” (The Regents of the University of California, priority 1998, dated 2004) come the findings set out here.

In this experiment the test system is MSU1.1 human fibroblasts. Briefly: Centrosome targeting of GFP fusion after transient transfection. The experiment is classed as cell-based. The note with it: 2-4 hr after transfection. The protocol: To allow transient expression of a human p80 WD40-GFP fusion protein in HeLa cells, a DNA fragment containing amino acids 1-263 of human p80 katanin was generated by PCR amplification, placing a BamHl site and a Kozak consensus at the predicted translation start and an EcoRI site after the codon for a.a. 263. This BamH1-EcoR1 fragment was ligated into the GFP fusion vector pEGFP-N1 (Clontech).
Both MSU1.1 and Hela cells were grown on 18 mm glass coverslips in Optimem medium (Life Technologies) supplemented with 10% fetal bovine serum, penicillin and streptomycin. Plasmids were transfected using Superfect Reagent (Qiagen) for 2 hr after which coverslips were washed with PBS and placed in fresh culture medium at 37° C. with 5% CO2 for 1-24 hr.
For imaging of GFP-fluorescence and immunofluorescence with the human p80 katanin antibody or with the γ-tubulin antibody, monoclonal GTU88 (Sigma Chemical), cells on coverslips were fixed either in −20° C. methanol or in 0.5×PBS, 3.7% formaldehyde, 75% methanol at 22° C. for 10 min followed by rehydration in TBST. Antibody labelling was carried out in TBST containing 4% BSA. Images were captured with a Nikon Microphot SA microscope, 100× Plan Fluor 1.3 objective, Photometrics Quantix camera and IP Lab Spectrum software (Scanalytics).

With “p80 WD40-GFP: six WD40 repeats of human p80 katanin (a.a. 1-263) appended to N-terminus of green fluorescent protein”, the “localization of green fluorescence” value is recorded as “co-localized with γ-tubulin staining”.
